Laboratory results from patent US9676760B2, “Fused heterocyclic compounds as ion channel modulators” (Gilead Sciences, Inc., priority 2011, dated 2017).

These molecules were tested against wild-type human cardiac sodium channel, hNav1.5 (Homo sapiens, UniProt Q14524) (assay: Late INa screening assay (QPatch whole cell patch clamp, HEK293)). Settings: HEK293, percent block of late INa; compound at 1 μM; 10 μM Tefluthrin; read-out: Late INa 1 μM.
Chain of wild-type human cardiac sodium channel, hNav1.5 (Q14524 whole entry): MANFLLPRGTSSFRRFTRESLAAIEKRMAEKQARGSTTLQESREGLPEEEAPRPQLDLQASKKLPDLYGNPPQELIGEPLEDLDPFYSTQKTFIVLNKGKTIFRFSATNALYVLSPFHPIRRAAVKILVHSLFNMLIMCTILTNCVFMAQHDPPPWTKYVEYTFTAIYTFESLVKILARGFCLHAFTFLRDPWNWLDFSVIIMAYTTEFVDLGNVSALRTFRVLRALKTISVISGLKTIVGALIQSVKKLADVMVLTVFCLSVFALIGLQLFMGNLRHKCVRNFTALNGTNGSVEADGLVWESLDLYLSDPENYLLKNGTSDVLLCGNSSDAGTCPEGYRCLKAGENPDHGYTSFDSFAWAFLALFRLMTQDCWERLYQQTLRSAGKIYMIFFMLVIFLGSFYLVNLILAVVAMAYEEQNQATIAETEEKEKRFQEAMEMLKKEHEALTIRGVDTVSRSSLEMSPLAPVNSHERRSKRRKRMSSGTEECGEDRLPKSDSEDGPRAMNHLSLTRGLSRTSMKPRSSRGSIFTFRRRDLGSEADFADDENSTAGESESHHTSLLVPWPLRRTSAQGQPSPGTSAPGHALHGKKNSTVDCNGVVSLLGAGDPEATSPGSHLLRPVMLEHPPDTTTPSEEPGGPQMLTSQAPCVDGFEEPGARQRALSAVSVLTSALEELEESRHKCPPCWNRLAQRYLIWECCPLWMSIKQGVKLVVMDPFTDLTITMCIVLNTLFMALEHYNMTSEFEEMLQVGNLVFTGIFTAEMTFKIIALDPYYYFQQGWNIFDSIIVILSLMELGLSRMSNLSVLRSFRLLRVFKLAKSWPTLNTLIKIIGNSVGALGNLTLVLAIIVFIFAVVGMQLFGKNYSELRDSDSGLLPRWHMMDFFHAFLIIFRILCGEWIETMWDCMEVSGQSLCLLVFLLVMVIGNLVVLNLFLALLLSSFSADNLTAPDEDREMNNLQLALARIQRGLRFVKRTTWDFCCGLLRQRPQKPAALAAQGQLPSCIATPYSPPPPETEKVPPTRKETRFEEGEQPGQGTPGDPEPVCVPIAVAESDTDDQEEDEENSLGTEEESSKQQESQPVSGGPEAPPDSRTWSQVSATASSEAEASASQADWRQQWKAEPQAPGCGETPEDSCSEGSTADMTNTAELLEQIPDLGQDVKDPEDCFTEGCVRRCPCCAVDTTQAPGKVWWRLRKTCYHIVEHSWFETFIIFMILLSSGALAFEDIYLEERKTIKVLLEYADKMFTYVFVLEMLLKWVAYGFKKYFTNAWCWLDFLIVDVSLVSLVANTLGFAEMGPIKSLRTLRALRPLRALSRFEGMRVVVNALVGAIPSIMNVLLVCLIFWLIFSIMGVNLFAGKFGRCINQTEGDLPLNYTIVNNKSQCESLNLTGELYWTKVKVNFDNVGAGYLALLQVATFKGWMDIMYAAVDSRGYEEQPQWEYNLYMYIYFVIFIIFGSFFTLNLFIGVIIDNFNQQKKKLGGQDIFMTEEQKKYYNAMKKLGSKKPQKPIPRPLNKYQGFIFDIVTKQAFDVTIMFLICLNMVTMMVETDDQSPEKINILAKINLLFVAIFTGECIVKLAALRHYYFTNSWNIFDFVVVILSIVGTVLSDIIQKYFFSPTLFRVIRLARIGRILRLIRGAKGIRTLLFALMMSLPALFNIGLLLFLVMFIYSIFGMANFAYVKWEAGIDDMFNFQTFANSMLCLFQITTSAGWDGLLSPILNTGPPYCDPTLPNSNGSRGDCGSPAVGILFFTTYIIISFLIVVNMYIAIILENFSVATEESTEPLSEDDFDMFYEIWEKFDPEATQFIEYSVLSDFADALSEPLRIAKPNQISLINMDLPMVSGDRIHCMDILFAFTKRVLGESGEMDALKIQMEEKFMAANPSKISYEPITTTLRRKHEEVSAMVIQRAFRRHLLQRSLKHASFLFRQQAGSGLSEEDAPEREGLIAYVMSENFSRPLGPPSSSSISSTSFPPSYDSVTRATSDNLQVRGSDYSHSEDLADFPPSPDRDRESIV
Assay type: cell-based
Description: The late sodium current (Late INa) and peak sodium current (Peak INa) assays are performed on an automated electrophysiology platform, QPatch 16× (Sophion Bioscience, Copenhagen, Denmark), which uses the whole cell patch clamp technique to measure currents through the cell membrane of up to 16 cells at a time. The assay uses an HEK293 (human embryonic kidney) cell line heterologously expressing the wild-type human cardiac sodium channel, hNav1.5, purchased from Millipore (Billerica, Mass.). No beta subunits were coexpressed with the Na channel alpha subunit. Cells are maintained with standard tissue culture procedures and stable channel expression is maintained with 400 μg/mL Geneticin in the culture medium. Cells isolated for use on QPatch are incubated for 5 minutes in Detachin 1×(Genlantis, San Diego, USA) at 37° C. to ensure that 80-90% of the cells are single and not part of a cell cluster. Experiments are carried out at 23-25° C.
For both the Late INa and Peak INa assays, series resistance compensation is set to 100% and series resistance and whole-cell compensation are performed automatically. Currents are digitized at 25 kHz and low-pass filtered at 12 kHz and 10 kHz for the late and peak INa assays, respectively. Currents through open sodium channels are automatically recorded and stored in the Sophion Bioscience Oracle database (Sophion Bioscience, Copenhagen, Denmark). Analysis is performed using QPatch Assay and database software and data are compiled in Excel.
Compound stocks are routinely made by the Gilead Sample Bank in plastic vials to 10 mM in dimethyl sulfoxide (DMSO). In some cases, when compounds are not soluble in DMSO, they are made in 100% ethanol. Stocks are sonicated as necessary. The extracellular solution for screening Late INa is composed of: 140 mM NaCl, 4 mM KCl, 1.8 mM CaCl2, 0.75 mM MgCl2 and 5 mM HEPES with pH adjusted to 7.4 using NaOH. The intracellular solution used to perfuse the inside of the cells for both the Late INa and Peak INa assays contains: 120 mM CsF, 20 mM CsCl, 5 mM EGTA, 5 mM HEPES and pH adjusted to 7.4 with CsOH. Compounds are diluted in extracellular solution to 1 μM in glass vials and then transferred to glass well plates before robotic addition to the cells. The 0 mM Na extracellular solution (0Na-ECF) used at the end of each experiment for the Late INa and Peak INa assays to measure baseline current contains: 140 mM N-methyl-D-glucamine; 4 mM KCl; 1.8 mM CaCl2; 0.75 mM MgCl2; 5 mM HEPES and pH was adjusted to 7.4 with HCl.
For the Late INa assay, sodium channels are activated every 10 seconds (0.1 Hz) by depolarizing the cell membrane to −20 mV for 250 milliseconds (ms) from a holding potential of −120 mV. In response to a −20 mV voltage step, typical hNav1.5 sodium currents activate rapidly to a peak negative current and then inactivate nearly completely within 3-4 ms.
Compounds were tested to determine their activity in blocking the late sodium current. Late INa was generated by adding 10 μM Tefluthrin (pyrethroid) to the extracellular solution while recording Na currents. […] ATX-II and tefluthrin occupy distinct, non-overlapping binding sites and modify Na^+ channel function differently to increase late INa. […] After establishing the whole cell recording configuration, late INa activator is added to each well 4 times over a 16-17 minute period so that the late component of the Na current reaches a stable value.
Results are reported as percent block of late INa.
With `O=C1c2cc(-c3ccc(C(F)(F)F)c(F)c3)ccc2OCCN1Cc1ncccn1` [II-136, 7-(3-fluoro-4-(trifluoromethyl)phenyl)-4-(pyrimidin-2-ylmethyl)-3,4-dihydrobenzo[f][1,4]oxazepin-5(2H)-one] the inhibition at 1 µM was 30%.
Molecule `O=C1c2cc(CCc3ccc(C(F)(F)F)cc3)ccc2OCCN1Cc1ncccc1F` [VIII-9, 4-((3-fluoropyridin-2-yl)methyl)-7-(4-(trifluoromethyl)phenethyl)-3,4-dihydrobenzo[f][1,4]oxazepin-5(2H)-one] has an inhibition at 1 µM of 50%.
`CN(c1ccc(OC(F)(F)F)cc1)c1ccc2c(c1)C(=O)N(Cc1ncccn1)CCO2` [XIII-10, 7-(methyl(4-(trifluoromethoxy)phenyl)amino)-4-(pyrimidin-2-ylmethyl)-3,4-dihydrobenzo[f][1,4]oxazepin-5(2H)-one] was tested, and the inhibition at 1 µM was 22%.
`O=C1NCCOc2ccc(-c3ccc(OC(F)(F)F)cc3)cc21` [II-74, 7-(4-(trifluoromethoxy)phenyl)-3,4-dihydrobenzo[f][1,4]oxazepin-5(2H)-one] gave an inhibition at 1 µM of 12%.
Molecule `O=C(c1cccnn1)N1CCOc2ccc(-c3ccc(OC(F)(F)F)cc3)cc2C1` [III-24, pyridazin-3-yl(7-(4-(trifluoromethoxy)phenyl)-2,3-dihydrobenzo[f][1,4]oxazepin-4(5H)-yl)methanone] has an inhibition at 1 µM of 17%.
With `CN(C)c1ccnc(CN2CCOc3ccc(-c4ccc(OC(F)(F)F)cc4)cc3C2=O)n1` [II-140, 4-((4-(dimethylamino)pyrimidin-2-yl)methyl)-7-(4-(trifluoromethoxy)phenyl)-3,4-dihydrobenzo[f][1,4]oxazepin-5(2H)-one] the inhibition at 1 µM was 32%.
Molecule `CC(C)(C)C1CC=C(c2ccc3c(c2)C(=O)N(Cc2ncccn2)CCO3)CC1` (stereo not shown) [Compound V-1, 7-(4-tert-butylcyclohex-1-enyl)-4-(pyrimidin-2-ylmethyl)-3,4-dihydrobenzo[f][1,4]oxazepin-5(2H)-one] has an inhibition at 1 µM of 24%.
With `CC(C)(C)OC(=O)N[C@@H]1C[C@@H]2COc3ccc(-c4ccc(C(F)(F)F)cc4)cc3C(=O)N2C1` [II-39, tert-butyl (2R,11aR)-5-oxo-7-(4-(trifluoromethyl)phenyl)-1,2,3,5,11,11a-hexahydrobenzo[f]pyrrolo[2,1-c][1,4]oxazepin-2-ylcarbamate] the inhibition at 1 µM was 16%.
`O=C1c2cc(-c3ccc(OC(F)(F)F)cc3)ccc2OCCN1Cn1ccc(C(F)(F)F)n1` [II-148, 7-(4-(trifluoromethoxy)phenyl)-4-((3-(trifluoromethyl)-1H-pyrazol-1-yl)methyl)-3,4-dihydrobenzo[f][1,4]oxazepin-5(2H)-one] gave an inhibition at 1 µM of 17%.
`O=C(c1ncc[nH]1)N1CCOc2ccc(-c3ccc(C(F)(F)F)cc3)cc2C1` [III-33, (1H-imidazol-2-yl)(7-(4-(trifluoromethyl)phenyl)-2,3-dihydrobenzo[f][1,4]oxazepin-4(5H)-yl)methanone] was tested, and the inhibition at 1 µM was 37%.
For `O=C1c2cc(-c3ccc(OC(F)(F)F)cc3)ccc2OCCN1Cc1ccc(C(F)(F)F)nc1` [II-16, 7-(4-(trifluoromethoxy)phenyl)-4-((6-(trifluoromethyl)pyridin-3-yl)methyl)-3,4-dihydrobenzo[f][1,4]oxazepin-5(2H)-one], the inhibition at 1 µM was 19%.
With `N[C@H]1C[C@H]2COc3ccc(-c4ccc(C(F)(F)F)cc4)cc3C(=O)N2C1` [II-51, (2S,11aS)-2-amino-7-(4-(trifluoromethyl)phenyl)-2,3,11,11a-tetrahydrobenzo[f]pyrrolo[2,1-c][1,4]oxazepin-5(1H)-one] the inhibition at 1 µM was 20%.
Work on `Cc1cc(C(F)(F)F)ccc1-c1ccc2c(c1)C(=O)N(Cc1ncccn1)CCO2` [II-145, 7-(2-methyl-4-(trifluoromethyl)phenyl)-4-(pyrimidin-2-ylmethyl)-3,4-dihydrobenzo[f][1,4]oxazepin-5(2H)-one] yielded an inhibition at 1 µM of 19%.
Work on `CC1(C(=O)N2CCOc3ccc(-c4ccc(OC(F)(F)F)cc4)cc3C2)CC1` [III-10, (1-methylcyclopropyl)(7-(4-(trifluoromethoxy)phenyl)-2,3-dihydrobenzo[f][1,4]oxazepin-4(5H)-yl)methanone] yielded an inhibition at 1 µM of 29%.
In the case of `O=C1c2cc(-c3cnc(N4CCCCC4)nc3)ccc2OCCN1Cc1ncccn1` [VI-11, 7-(2-(piperidin-1-yl)pyrimidin-5-yl)-4-(pyrimidin-2-ylmethyl)-3,4-dihydrobenzo[f][1,4]oxazepin-5(2H)-one], the inhibition at 1 µM is reported as 19%.
Molecule `O=C1c2cc(-c3ccc(OC(F)(F)F)cc3)ccc2OCCN1CCOc1ncccn1` [II-69, 4-(2-(pyrimidin-2-yloxy)ethyl)-7-(4-(trifluoromethoxy)phenyl)-3,4-dihydrobenzo[f][1,4]oxazepin-5(2H)-one] has an inhibition at 1 µM of 33%.
`CC1(CN2CCOc3ccc(-c4ccc(OC(F)(F)F)cc4)cc3C2=O)COC1` [II-1, 4-((3-methyloxetan-3-yl)methyl)-7-(4-(trifluoromethoxy)phenyl)-3,4-dihydrobenzo[f][1,4]oxazepin-5(2H)-one] gave an inhibition at 1 µM of 25%.
Molecule `O=C1c2cc(-c3ccc(OC(F)(F)F)cc3)ccc2OCCN1Cc1ccc(F)c(F)c1` [II-45, 4-(3,4-difluorobenzyl)-7-(4-(trifluoromethoxy)phenyl)-3,4-dihydrobenzo[f][1,4]oxazepin-5(2H)-one] has an inhibition at 1 µM of 27%.
For `C[C@@H]1COc2ccc(-c3ccc(C(F)(F)F)cc3)cc2C(=O)N1Cc1ncccn1` [II-13, (R)-3-methyl-4-(pyrimidin-2-ylmethyl)-7-(4-(trifluoromethyl)phenyl)-3,4-dihydrobenzo[f][1,4]oxazepin-5(2H)-one], the inhibition at 1 µM was 18%.
`O=C1c2cc(-c3ccc(OC(F)(F)F)cc3)ccc2OCCN1Cc1ccncc1` [II-67, 4-(pyridin-4-ylmethyl)-7-(4-(trifluoromethoxy)phenyl)-3,4-dihydrobenzo[f][1,4]oxazepin-5(2H)-one] was tested, and the inhibition at 1 µM was 22%.
With `O=C(c1nc[nH]n1)N1CCOc2ccc(-c3ccc(C(F)(F)F)cc3)cc2C1` [III-50, (1H-1,2,4-triazol-3-yl)(7-(4-(trifluoromethyl)phenyl)-2,3-dihydrobenzo[f][1,4]oxazepin-4(5H)-yl)methanone] the inhibition at 1 µM was 24%.
With `CC(C)c1ccc(-c2ccc3c(c2)C(=O)N(Cc2ncccn2)CCO3)cc1` [II-89, 7-(4-isopropylphenyl)-4-(pyrimidin-2-ylmethyl)-3,4-dihydrobenzo[f][1,4]oxazepin-5(2H)-one] the inhibition at 1 µM was 28%.
`C[C@@H]1COc2ccc(-c3ccc(C(F)(F)F)cc3)cc2C(=O)N1` [II-19, (R)-3-methyl-7-(4-(trifluoromethyl)phenyl)-3,4-dihydrobenzo[f][1,4]oxazepin-5(2H)-one] gave an inhibition at 1 µM of 21%.
For `Cc1ccc(-c2ccc3c(c2)C(=O)N(Cc2ncccn2)CCO3)cc1` [II-87, 4-(pyrimidin-2-ylmethyl)-7-p-tolyl-3,4-dihydrobenzo[f][1,4]oxazepin-5(2H)-one], the inhibition at 1 µM was 22%.
Molecule `COCCN1CCOc2ccc(-c3ccc(OC(F)(F)F)cc3)cc2C1=O` [II-11, 4-(2-methoxyethyl)-7-(4-(trifluoromethoxy)phenyl)-3,4-dihydrobenzo[f][1,4]oxazepin-5(2H)-one] has an inhibition at 1 µM of 23%.
In the case of `CCN1CCN2C(=O)c3cc(-c4ccc(C(F)(F)F)cc4)ccc3OC[C@H]2C1` [II-23, (R)-2-ethyl-8-(4-(trifluoromethyl)phenyl)-3,4,12,12a-tetrahydro-1H-benzo[f]pyrazino[2,1-c][1,4]oxazepin-6(2H)-one], the inhibition at 1 µM is reported as 25%.
Work on `O=C1c2cc(-c3ccc(F)c(F)c3)ccc2OCCN1Cc1ncccn1` [II-163, 7-(3,4-difluorophenyl)-4-(pyrimidin-2-ylmethyl)-3,4-dihydrobenzo[f][1,4]oxazepin-5 (2H)-one] yielded an inhibition at 1 µM of 28%.
With `O=C1c2cc(-c3ccc(OC(F)(F)F)cc3)ccc2OCCN1CCO` [II-71, 4-(2-hydroxyethyl)-7-(4-(trifluoromethoxy)phenyl)-3,4-dihydrobenzo[f][1,4]oxazepin-5(2H)-one] the inhibition at 1 µM was 12%.
